The results in this text go back to ChEMBL document CHEMBL3751757, “Three-component, one-pot synthesis of benzo[6,7]cyclohepta[1,2-b]pyridine derivatives under catalyst free conditions and evaluation of their anti-inflammatory activity” (Bioorg Med Chem Lett, 2016).

Each structure is given as a SMILES string.

The subject of test [1] is THP-1. As to the kind of experiment: Anti-inflammatory activity in human THP1 cells assessed as inhibition of PMA-induced IL-1beta production after 48 hrs by ELISA. It is filed as functional, cell-based. The settings on record: THP-1, 48 h. (ELISA stands for enzyme-linked immunosorbent assay.)
Test [2] relates to THP-1. As to the kind of experiment: Anti-inflammatory activity in human THP1 cells assessed as inhibition of PMA-induced MCP-1 production after 48 hrs by ELISA. The settings on record: THP-1, 48 h. Format: functional, cell-based.
A short description of test [3]: Cytotoxicity against human THP1 cells assessed as cell viability at 20 uM after 48 hrs by trypan blue dye exclusion assay. Format: functional. The settings on record: THP-1, 48 h, read-out: Activity.

As for `CCOC(=O)c1cc2c(nc1C)-c1cc(C)c(C)cc1CCC2`, the IC50 was 6.5 µM in test [1] and 8.5 µM in test [2]. In test [3], the viability at 20 µM turned out to be 95.9%.
`CC1(C)CC(=O)c2cc3c(nc2C1)-c1ccccc1CCC3`: the IC50 in test [1] is more than 20 µM; in test [2] it was 5.6 µM. Besides, the viability at 20 µM in test [3] is 98.2%.
With `CC(=O)c1cc2c(nc1C)-c1cc(C)c(C)cc1CCC2`, the IC50 in test [1] was more than 20 µM; in test [2] it was 14.8 µM. In addition, the viability at 20 µM in test [3] amounted to 97.6%.
Take `COC(=O)c1cc2c(nc1C)-c1cc(C)c(C)cc1CCC2`: the half-maximal inhibitory concentration (IC50) in test [1] worked out at 8.6 µM; in test [2] it was 16 µM. In test [3], the viability at 20 µM was determined as 98.3%.
On to `O=C(c1ccccc1)c1cc2c(nc1-c1ccccc1)-c1ccccc1CCC2`, for which the IC50 in test [1] is 17.5 µM; in test [2] it was more than 20 µM. In test [3], the viability at 20 µM turned out to be 99.4%.
In the case of `O=C1CCCc2nc3c(cc21)CCCc1ccccc1-3`, the IC50 in test [1] and in test [2] was more than 20 µM in each case. Moreover, the viability at 20 µM in test [3] was found to be 96.8%.
On to `CCOC(=O)c1cc2c(nc1-c1ccccc1)-c1ccccc1CCC2`, for which the IC50 in test [1] and in test [2] was more than 20 µM in each case. For the same compound, the viability at 20 µM in test [3] is 103%.
As to `Cc1cc2c(cc1C)-c1nc3c(cc1CCC2)C(=O)CCC3`, the IC50 in test [1] and in test [2] was more than 20 µM each time. Further, in test [3], the viability at 20 µM was determined as 97.1%.
Take `CCOC(=O)c1cc2c(nc1-c1ccccc1)-c1cc(C)c(C)cc1CCC2`: the values for the IC50 in test [1] and in test [2] were 18.2 µM and 8.5 µM, respectively. Further, the viability at 20 µM in test [3] came to 97.6%.
As for `Cc1cc2c(cc1C)-c1nc3c(cc1CCC2)C(=O)CC(C)(C)C3`, the IC50 in test [1] and in test [2] was more than 20 µM throughout. Besides, the viability at 20 µM in test [3] is 105%.
For the compound `COC(=O)c1cc2c(nc1C)-c1ccccc1CCC2`, the IC50 in test [1] was 8.2 µM; in test [2], more than 20 µM. Further, the viability at 20 µM in test [3] turned out to be 97.2%.
In the case of `Cc1cc2c(cc1C)-c1nc(-c3ccccc3)c(C(=O)c3ccccc3)cc1CCC2`, the IC50 in test [1] and in test [2] was more than 20 µM each time. In test [3], the viability at 20 µM turned out to be 101%.
With `CCOC(=O)c1cc2c(nc1C)-c1ccccc1CCC2`, the IC50 was 6.9 µM in test [1] and more than 20 µM in test [2]. Also, the viability at 20 µM in test [3] amounted to 99.2%.
As for `CC(=O)c1cc2c(nc1C)-c1ccccc1CCC2`, the concentration for half-maximal inhibition (IC50) in test [1] and in test [2] was more than 20 µM throughout. Besides, the viability at 20 µM in test [3] is 92.3%.
For the compound `CN1C(C(=O)Nc2ccccn2)=C(O)c2ccccc2S1(=O)=O` [PIROXICAM], the IC50 in test [1] turned out to be 18.1 µM. Besides, the viability at 20 µM in test [3] turned out to be 98.1%.

In general, IC50 refers to the concentration needed to halve the response being measured.
